Measurements as given in patent publication US11883383B2, “Pharmaceutically acceptable salts of [3-(4- {2-butyl-1-[4-(4-chloro-phenoxy)-phenyl]-1H-imidazol-4-yl} -phenoxy)-propyl]-diethyl-amine” (vTv Therapeutics LLC, priority 2018, dated 2024).

Assay: Salt/co-crystal screening: 38 acids, eight solvent systems, solids analysed by XRPD
Assay type: physicochemical
Conditions: acid/freebase charge 1:1 unless label says 2:1, stirred at RT, else 5° C. slurry, anti-solvent addition or evaporation (footnote marks)
Protocol: XRPD analysis was performed with a Panalytical X'Pert^3 Powder XRPD on a Si zero-background holder. The 2θ position was calibrated against Panalytical Si reference standard disc.
A total of 320 salt/co-crystal screening experiments were conducted using 38 acids (two molar ratios for HCl and HBr) and eight solvent systems. Specifically, freebase stock solutions of ˜100 mg/mL were first prepared in each solvent system. For each experiment, 0.2 mL stock solution and the corresponding acids were mixed in a molar charge ratio of 1:1 (acid/freebase, 2:1 for HCl/freebase and HBr/freebase as well), and then stirred at RT. After stirring for 3-5 days, if precipitation was observed, the precipitate was isolated. It no precipitation, the clear solutions were first transferred to slurry at 5° C. to introduce precipitation. Solutions without any precipitation were further subjected to anti-solvent addition (for solvents in column B/D, 0.5 mL hexane was added; for solvents in column G/H, 0.5 mL water was added; for solvent in column F, 0.5 mL n-heptane was added). If still no precipitation, the final clear solutions were transferred to evaporation at RT to induce precipitation. All solids isolated were vacuum dried at RT for 2 hrs before XRPD analysis.

SMILES	Solid obtained in salt screening (XRPD), solvent D Acetone/Hexane (1:2, v/v)	Solid obtained in salt screening (XRPD), solvent H Dioxane/H2O (9:1, v/v)	Solid obtained in salt screening (XRPD), solvent A Ethanol	Solid obtained in salt screening (XRPD), solvent B Ethyl acetate/Hexane (1:2, v/v)	Solid obtained in salt screening (XRPD), solvent G Methanol/H2O (19:1, v/v)	Solid obtained in salt screening (XRPD), solvent F Methyl tertbutyl ether	Solid obtained in salt screening (XRPD), solvent C THF	Solid obtained in salt screening (XRPD), solvent E Toluene
O=C(O)c1ccc2ccccc2c1O [1-hydroxy-2-naphthoic acid]	gel	amorphous*	amorphous*	gel*	amorphous*	gel	gel	gel
Nc1ccc(C(=O)O)c(O)c1 [4-Aminosalicylic acid]	gel	gel	gel*	–	–	–	gel	gel
O=C(O)CCCCC(=O)O [Adipic acid]	FB Type B*	amorphous*	gel*	amorphous*	amorphous*	amorphous*	gel*	gel*
O=C(O)c1ccccc1 [Benzoic acid]	gel*	amorphous*	gel*	gel*	amorphous*	amorphous*	gel*	gel*
O=C(O)CC(O)(CC(=O)O)C(=O)O [Citric acid]	–	amorphous*	gel*	–	amorphous*	amorphous	amorphous^#	amorphous
O=C(O)/C=C/C(=O)O [Fumaric acid]	–	amorphous*	gel*	–	amorphous*	–	gel*	–
O=C(O)c1cc(O)ccc1O [Gentisic acid]	–	–	gel*	–	–	–	gel*	–
O=C(O)[C@H](O)[C@@H](O)[C@H](O)[C@H](O)CO [Gluconic acid]	amorphous^&	amorphous*	amorphous*	gel*	amorphous*	amorphous	amorphous*	gel
N[C@@H](CCC(=O)O)C(=O)O [Glutamic acid]	–	glutamic acid	glutamic acid	–	–	glutamic acid	–	–
O=C(O)CCCC(=O)O [Glutaric acid]	amorphous*	amorphous*	gel*	amorphous*	amorphous*	amorphous^&	gel*	gel*
O=S(=O)(O)O [H2SO4]	gel	gel*	gel*	gel	gel*	–	gel	amorphous*
Br.CCCCc1nc(-c2ccc(OCCCN(CC)CC)cc2)cn1-c1ccc(Oc2ccc(Cl)cc2)cc1 [HBr (1:1)]	–	gel*	–	–	–	–	–	–
CCCCCC(=O)O [Hexanoic acid]	gel*	FB Type A*	gel	gel*	amorphous*	FB Type B^&	gel	gel
O=C(O)CNC(=O)c1ccccc1 [Hippuric acid]	amorphous*	amorphous*	gel*	–	amorphous*	–	gel*	gel*
C[C@H](O)C(=O)O [L-lactic acid]	gel	amorphous*	amorphous*	gel*	amorphous*	gel	gel	gel*
O=C(O)C[C@H](O)C(=O)O [L-malic acid]	gel	amorphous*	amorphous*	–	amorphous*	–	gel	gel

Second part, the molecule after the results:

Solid obtained in salt screening (XRPD), solvent D Acetone/Hexane (1:2, v/v)	Solid obtained in salt screening (XRPD), solvent H Dioxane/H2O (9:1, v/v)	Solid obtained in salt screening (XRPD), solvent A Ethanol	Solid obtained in salt screening (XRPD), solvent B Ethyl acetate/Hexane (1:2, v/v)	Solid obtained in salt screening (XRPD), solvent G Methanol/H2O (19:1, v/v)	Solid obtained in salt screening (XRPD), solvent F Methyl tertbutyl ether	Solid obtained in salt screening (XRPD), solvent C THF	Solid obtained in salt screening (XRPD), solvent E Toluene	SMILES
–	–	–	–	amorphous*	–	–	–	O=C(O)C(O)C(O)C(=O)O [L-tartartic acid]
–	amorphous*	gel*	–	amorphous*	–	gel*	gel*	O=C(O)/C=C\C(=O)O [Maleic acid]
amorphous*	amorphous*	gel*	amorphous*	amorphous*	gel*	gel*	gel*	O=C(O)CC(=O)O [Malonic acid]
gel	gel*	gel*	–	gel*	amorphous	gel	gel*	CS(=O)(=O)O [Methane sulfonic acid]
–	amorphous*	gel*	nicotinic acid	amorphous*	nicotinic acid	gel*	–	O=C(O)c1cccnc1 [Nicotinic acid]
–	–	–	–	gel*	–	–	–	O=C(O)C(=O)O [Oxalic acid]
gel*	gel*	gel*	gel*	FB Type A^&	gel*	gel*	gel*	CCCCCCCCCCCCCCCC(=O)O [Palmitic acid]
